Common to all, as to type: functional
The test system of one assay is Abutilon theophrasti. Put plainly: Herbicidal activity against three-leaf stage Abutilon theophrasti (velvetleaf) exposed to foliar compound spraying at 1000 ppm measured 10 days after compound treatment.
Another assay relates to Ambrosia artemisiifolia. Put plainly: Herbicidal activity against three-leaf stage Ambrosia artemisiifolia (ragweed) exposed to foliar compound spraying at 1000 ppm measured 10 days after compound treatment.
A further assay concerns Xanthium strumarium. Put plainly: Herbicidal activity against three-leaf stage Xanthium strumarium (cocklebur) exposed to foliar compound spraying at 1000 ppm measured 10 days after compound treatment.
For another assay, the system named is Ipomoea purpurea. Put plainly: Herbicidal activity against three-leaf stage Ipomoea purpurea (common morning-glory) exposed to foliar compound spraying at 1000 ppm measured 10 days after compound treatment.
The test system of a further assay is Solanum nigrum. Put plainly: Herbicidal activity against three-leaf stage Solanum nigrum (black nightshade) exposed to foliar compound spraying at 1000 ppm measured 10 days after compound treatment.
Another assay deals with Sorghum halepense. Put plainly: Herbicidal activity against three-leaf stage Sorghum halepense (Johnson grass) exposed to foliar compound spraying at 1000 ppm measured 10 days after compound treatment.
Another assay relates to Panicum dichotomiflorum. Put plainly: Herbicidal activity against three-leaf stage Panicum dichotomiflorum exposed to foliar compound spraying at 1000 ppm measured 10 days after compound treatment.
The subject of another assay is Digitaria sanguinalis. Put plainly: Herbicidal activity against three-leaf stage Digitaria sanguinalis (hairy crabgrass) exposed to foliar compound spraying at 1000 ppm measured 10 days after compound treatment.
The subject of another assay is Echinochloa crus-galli. Put plainly: Herbicidal activity against three-leaf stage Echinochloa crus-galli (barnyard grass) exposed to foliar compound spraying at 1000 ppm measured 10 days after compound treatment.
Another assay has as its system Setaria viridis. Put plainly: Herbicidal activity against three-leaf stage Setaria viridis (green foxtail) exposed to foliar compound spraying at 1000 ppm measured 10 days after compound treatment.

In ChEMBL document CHEMBL3045629, “Synthesis and Herbicidal Activity of Hydantocidin Analogues: Modification of the Carbonyl Groups in Spirohydantoin” (1995) one finds Activity data, which are given here for three molecules.

`O=C1NC(NCc2ccccc2)=N[C@]12O[C@H](CO)[C@@H](O)[C@H]2O`: the Activity with Abutilon theophrasti is 0%; in the assay on Ambrosia artemisiifolia, 95%; in the assay on Xanthium strumarium, 95%; with Ipomoea purpurea, 10%; in the assay on Solanum nigrum, 30%; in the assay with Sorghum halepense it was 0%. Also, the Activity in the assay with Panicum dichotomiflorum, in the assay on Digitaria sanguinalis, with Echinochloa crus-galli and in the assay on Setaria viridis was 0% each time.
Regarding `O=C1NC[C@]2(N1)O[C@H](CO)[C@@H](O)[C@H]2O`, the Activity in the assay with Abutilon theophrasti came out at 10%; with Ambrosia artemisiifolia, 10%; with Xanthium strumarium it was 0%; with Ipomoea purpurea, 0%; in the assay on Solanum nigrum, 10%; in the assay on Sorghum halepense, 10%. In addition, the Activity worked out at 10% with Panicum dichotomiflorum, 0% with Digitaria sanguinalis, 10% in the assay on Echinochloa crus-galli and 10% in the assay on Setaria viridis.
With `O=C1NC(=O)[C@]2(N1)O[C@H](CO)[C@@H](O)[C@H]2O` [HYDANTOCIDIN], the Activity in the assay with Abutilon theophrasti, with Ambrosia artemisiifolia, with Xanthium strumarium, with Ipomoea purpurea, with Solanum nigrum and with Sorghum halepense was 95% throughout. Besides, the Activity in the assay with Panicum dichotomiflorum, in the assay on Digitaria sanguinalis, with Echinochloa crus-galli and with Setaria viridis was 95% each time.
